Experimental data reported in patent US3996360A, “Piperazine compounds” (Knoll A.G. Chemische Fabriken, priority 1974, dated 1976).
Where two headings read alike, the source gives them in different places.

Experiments:
[1] = test system: left auricle of the guinea pig; experiment: Functional refractory period of the left auricle, paired electrical stimulation (method of Govier); conditions: for percent lengthening of refractory period at 0.01 µM: Cavia porcellus, read-out: Antiarrhythmic Effect (Lengthening of the refractory period in percent); for percent lengthening of refractory period at 0.01 µM / Antiarrhythmic Effect (Lengthening of the refractory period in percent): Table 2, dose in each case 10^^-5 millimoles/liter; for Antiarrhythmic Effect (Lengthening of the Refractory Period) ED25: Table 1, effective dose which lengthens the refractory period by 25 percent
Text: Evidence of the anti-arrhythmic effect of the new compounds is obtained in experimental animals by determination of the functional refractory period of the left auricle of the guinea pig with the aid of paired electrical stimulation employing the method of W. C. Govier, J. Pharmacol. Exp. Therap. 148, 100 - 105 (1965). In this experimental arrangement, those anti-arrhythmic agents already known for use in therapy, of differing structure and of different points of attack in the human, all distinguish themselves by lengthening the functional refractory period. The method additionally permits a determination of the effects of the substances on the contractile force of the heart muscle [cf. Reuter and Heeg, Naunyn-Schmiedeberg's Arch. Pharmak. 268, 323 - 333 (1971) and Zettler and Strubelt, Naunyn-Schmiedeberg's Arch. Pharmak. 271, 335 - 345 (1971)].
The testing of the substances in each case involves up to thirty individual experiments. For the dosage effect relationships, linear regression functions were calculated [A. Lindner, Statistische Methoden, 3rd Edition, Birkhaeuser Verlag, Basel (1969)], wherein the maximum percentage deviations from the starting value over a period of up to 60 minutes after addition of the test substance to the bath fluid were employed.
In following Table 1, column I, the optical isomers of one of the compounds of the invention and known anti-arrhythmic agents are named. Column II reports their anti-arrhythmic effect. Column III gives the inotropic effect, and column IV represents the therapeutic breadth of the compounds. The ED25 is the effective dose which lengthens the refractory period by 25 percent or reduces the contractile force by 25 percent.
The dose in each case is 10^^-5 millimoles/liter.

[2] = test system: left auricle of the guinea pig; experiment: Inotropic effect: contractile force of the heart muscle (left auricle); conditions: Table 1; for Inotropic Effect (Decrease in Contractile Force) ED25: effective dose which reduces the contractile force by 25 percent; for Therapeutic Breadth (III/II): ratio inotropic ED25 / antiarrhythmic ED25
Text: Evidence of the anti-arrhythmic effect of the new compounds is obtained in experimental animals by determination of the functional refractory period of the left auricle of the guinea pig with the aid of paired electrical stimulation employing the method of […]. Pharmacol. Exp. Therap. 148, 100 - 105 (1965). In this experimental arrangement, those anti-arrhythmic agents already known for use in therapy, of differing structure and of different points of attack in the human, all distinguish themselves by lengthening the functional refractory period. The method additionally permits a determination of the effects of the substances on the contractile force of the heart muscle [cf. Reuter and Heeg, Naunyn-Schmiedeberg's Arch. Pharmak. 268, 323 - 333 (1971) and Zettler and Strubelt, Naunyn-Schmiedeberg's Arch. Pharmak. 271, 335 - 345 (1971)]. The testing of the substances in each case involves up to thirty individual experiments. For the dosage effect relationships, linear regression functions were calculated [[…] Methoden, 3rd Edition, Birkhaeuser Verlag, Basel (1969)], wherein the maximum percentage deviations from the starting value over a period of up to 60 minutes after addition of the test substance to the bath fluid were employed. In following Table 1, column I, the optical isomers of one of the compounds of the invention and known anti-arrhythmic agents are named. Column II reports their anti-arrhythmic effect. Column III gives the inotropic effect, and column IV represents the therapeutic breadth of the compounds. The ED25 is the effective dose which lengthens the refractory period by 25 percent or reduces the contractile force by 25 percent.

[3] = test system: disturbances of the heart-beat rhythm; experiment: Aconitine-induced disturbances of the heart rhythm, long term effect after peroral treatment; format: in vivo; conditions: rats, perorally 400 mg/kg, eight hours after administration, vs untreated animals
Text: (§1) The anti-arrhythmic effect of the new compounds can also be determined in intact test animals by experimentally-induced disturbances of the heart rhythm. If rats are continually infused intravenously with aconitine, serious disturbances of the heart-beat rhythm, such as extrasystoles, ventricular tachycardia, and ventricular flutter, which disturbances eventually lead to the death of the test animals, are evident in an electrocardiogram. […] Bianchi et al., Arzneim. Forsch. 18, 845 - 850 (1968); Haas and Busch, Arzneim. Forsch. 18, 401 - 407 (1968); Haas et al., Arzneim. Forsch. 21, 1392 - 1399 (1971); Marmo, Naunyn-Schmiedeberg's Arch. Pharmak. 269, 231 - 247 (1971); Strubelt et al., Naunym-Schmiedeberg's Arch. Pharmak. 271, 346 - 360 ( 1971)].

[4] = test system: disturbances of the heart-beat rhythm; experiment: Aconitine-induced disturbances of the heart rhythm, intravenous pretreatment; format: in vivo, rats; conditions: intravenous; for ED25 / ED50: Rattus norvegicus; for Ventricular Flutter ED25: dose raising administered aconitine dose by 25 percent prior to ventricular flutter; for Ventricular Flutter ED50: dose raising administered aconitine dose by 50 percent prior to ventricular flutter
Text: as §1
The ED25 and ED50 are the intravenous doses, in mg/kg, which raise the administered aconitine doses, in comparison with the aconitine control, by 25 percent or 50 percent prior to the appearance of extrasystoles, ventricular tachycardia, and ventricular flutter.

[5] = dose raising administered aconitine dose by 25 percent prior to ventricular tachycardia, read-out: Ventricular Tachycardia ED25
[6] = dose raising administered aconitine dose by 50 percent prior to ventricular tachycardia, read-out: Ventricular Tachycardia ED50

## COc1ccc(CC2(C)CN(C(c3ccccc3)c3ccc(Cl)cc3)CCN2CCO)cc1OC (centres unmarked) [1-(p-chlorophenyl-phenylmethyl)-3-methyl-3-(3,4-dimethoxybenzyl)-4-hydroxyethyl-piperazine]
[1]
  percent lengthening of refractory period at 0.01 µM: 55%

## COc1ccc(CC2(C)CN(C(c3ccccc3)c3ccc(Cl)cc3)CCN2)cc1OC (centres unmarked) [1-(p-chlorophenyl-phenylmethyl)-3-methyl-3-(3,4-dimethoxybenzyl)-piperazine]
[1]
  percent lengthening of refractory period at 0.01 µM: 28%

## COc1ccc(CC2(C)CN(C(c3ccccc3)c3ccccc3)CCN2CCO)cc1OC (centres unmarked) [1-diphenylmethyl-3-methyl-3-(3,4-dimethoxybenzyl)-4-hydroxyethylpiperazine]
[1]
  percent lengthening of refractory period at 0.01 µM: 55%

## COc1ccc(CC2(C)CN(C(c3ccccc3)c3ccccc3)CCN2C)cc1OC (centres unmarked) [1-diphenylmethyl-3-methyl-3-(3,4-dimethoxybenzyl)-4-methyl-p] [1-diphenylmethyl-3-methyl-3-(3,4-dimethoxybenzyl)-4-methyl-piperazine]
[1]
  Antiarrhythmic Effect (Lengthening of the refractory period in percent): 64%

## COc1ccc(CC2(C)CN(C(c3ccccc3)c3ccccc3)CCN2)cc1OC (centres unmarked) [1-diphenylmethyl-3-methyl-3-(3,4-dimethoxybenzyl)-piperazine] [listing 1 of 2 here]
[1]
  percent lengthening of refractory period at 0.01 µM: 46%

## COc1ccc(CC2(C)CN(C(c3ccccc3)c3ccccc3)CCN2)cc1OC (centres unmarked) [1-diphenylmethyl-3-methyl-3-(3,4-dimethoxybenzyl)-piperazine] [listing 2 of 2 here]
[1]
  effectiveness (in words): outstanding

## CCN1CCN(C(c2ccccc2)c2ccccc2)CC1(C)Cc1ccc(OC)c(OC)c1 (centres unmarked) [(D)-1-diphenylmethyl-3-methyl-3-(3,4-dimethoxybenzyl)-4-ethy] [(D)-1-diphenylmethyl-3-methyl-3-(3,4-dimethoxybenzyl)-4-ethyl-piperazine]
[1]
  Antiarrhythmic Effect (Lengthening of the refractory period in percent): 50%

## COc1ccc(CC2(C)CN(C(c3ccccc3)c3ccccc3)CCN2CCO)cc1OC (centres unmarked) [(D)-1-diphenylmethyl-3-methyl-3-(3,4-dimethoxybenzyl)-4-hydr] [(D)-1-diphenylmethyl-3-methyl-3-(3,4-dimethoxybenzyl)-4-hydroxyethyl-piperazine]
[1]
  Antiarrhythmic Effect (Lengthening of the refractory period in percent): 72%

## COc1ccc(CC2(C)CN(C(c3ccccc3)c3ccccc3)CCN2C)cc1OC (centres unmarked) [(D)-1-diphenylmethyl-3-methyl-3-(3,4-dimethoxybenzyl)-4-meth] [(D)-1-diphenylmethyl-3-methyl-3-(3,4-dimethoxybenzyl)-4-methyl-piperazine]
[1]
  Antiarrhythmic Effect (Lengthening of the Refractory Period) ED25: 0.0063
  Antiarrhythmic Effect (Lengthening of the refractory period in percent): 50%
[2]
  Inotropic Effect (Decrease in Contractile Force) ED25: 0.0093
[3]
  higher dose of aconitine required before the appearance of extrasystoles: 68%
  higher dose of aconitine required before the appearance of ventricular flutter: 70%
  higher dose of aconitine required before the appearance of ventricular tachycardia: 75%

## CCCCN1CCN(C(c2ccccc2)c2ccccc2)CC1(C)Cc1ccc(OC)c(OC)c1 (centres unmarked) [(D)-1-diphenylmethyl-3-methyl-3-(3,4-dimethoxybenzyl)-4-n-butyl-piperazine]
[1]
  percent lengthening of refractory period at 0.01 µM: 31%

## CCCN1CCN(C(c2ccccc2)c2ccccc2)CC1(C)Cc1ccc(OC)c(OC)c1 (centres unmarked) [(D)-1-diphenylmethyl-3-methyl-3-(3,4-dimethoxybenzyl)-4-n-propyl-piperazine]
[1]
  percent lengthening of refractory period at 0.01 µM: 51%

## COc1ccc(CC2(C)CN(C(c3ccccc3)c3ccccc3)CCN2)cc1OC (centres unmarked) [(D)-1-diphenylmethyl-3-methyl-3-(3,4-dimethoxybenzyl)-pipera] [(D)-1-diphenylmethyl-3-methyl-3-(3,4-dimethoxybenzyl)-piperazine]
[1]
  Antiarrhythmic Effect (Lengthening of the refractory period in percent): 31%

## CCN1CCN(C(c2ccccc2)c2ccccc2)CC1(C)Cc1ccc(OC)c(OC)c1 (centres unmarked) [(L)-1-diphenylmethyl-3-methyl-3-(3,4-dimethoxybenzyl)-4-ethyl-piperazine]
[1]
  percent lengthening of refractory period at 0.01 µM: 48%

## COc1ccc(CC2(C)CN(C(c3ccccc3)c3ccccc3)CCN2C)cc1OC (centres unmarked) [(L)-1-diphenylmethyl-3-methyl-3-(3,4-dimethoxybenzyl)-4-meth] [(L)-1-diphenylmethyl-3-methyl-3-(3,4-dimethoxybenzyl)-4-methyl-piperazine]
[1]
  Antiarrhythmic Effect (Lengthening of the Refractory Period) ED25: 0.0056
  Antiarrhythmic Effect (Lengthening of the refractory period in percent): 73%
[2]
  Inotropic Effect (Decrease in Contractile Force) ED25: 0.0052
  Therapeutic Breadth (III/II): 0.9

## CC[C@H]1[C@@H]2C[C@H]3[C@@H]4N(C)c5ccccc5[C@]45C[C@@H]([C@@H]2[C@H]5O)N3[C@@H]1O [Ajmaline, reference compound]
[1]
  percent lengthening of refractory period at 0.01 µM: 14%

## CCC[N+]12[C@H](O)[C@@H](CC)[C@@H]3C[C@H]1[C@@H]1N(C)c4ccccc4[C@]14C[C@H]2[C@@H]3[C@H]4O [N-n-propylajmaline, reference compound]
[1]
  Antiarrhythmic Effect (Lengthening of the Refractory Period) ED25: 0.0037
[2]
  Inotropic Effect (Decrease in Contractile Force) ED25: 0.0015
  Therapeutic Breadth (III/II): 0.4

## CCN(CC)CCNC(=O)c1ccc(N)cc1 [Procainamide]
[4]; dose raising administered aconitine dose by 25 percent prior to extrasystoles, read-out: Extrasystoles ED25
  ED25: 6.8 mg/kg
[4]; [5]
  ED25: 6.8 mg/kg
[4]; dose raising administered aconitine dose by 50 percent prior to extrasystoles, read-out: Extrasystoles ED50
  ED50: 52.6 mg/kg
[4]; [6]
  ED50: 29.1 mg/kg
[4]
  Ventricular Flutter ED25: +
  Ventricular Flutter ED50: +
[3]
  higher dose of aconitine required before the appearance of extrasystoles: 16%
  higher dose of aconitine required before the appearance of ventricular flutter: 29%
  higher dose of aconitine required before the appearance of ventricular tachycardia: 12%

## C1CCN2C[C@@H]3C[C@@H](CN4CCCC[C@@H]34)[C@H]2C1 [Sparteine]
[4]; [5]
  ED25: 4.4 mg/kg
[4]; [6]
  ED50: 9.5 mg/kg
[4]; dose raising administered aconitine dose by 25 percent prior to extrasystoles
  Extrasystoles ED25: +
[4]
  Ventricular Flutter ED25: +
  Ventricular Flutter ED50: +
[4]; dose raising administered aconitine dose by 50 percent prior to extrasystoles
  Extrasystoles ED50: +
